This experiment addresses Glutaminyl-peptide cyclotransferase (Homo sapiens, UniProt Q16769). In words: Inhibition of human glutaminyl cyclase expressed in HEK293 cells using L-glutaminyl-beta-naphthylamine as substrate after 1 hr by fluorometric analysis.
Glutaminyl-peptide cyclotransferase, sequence (Q16769 whole entry): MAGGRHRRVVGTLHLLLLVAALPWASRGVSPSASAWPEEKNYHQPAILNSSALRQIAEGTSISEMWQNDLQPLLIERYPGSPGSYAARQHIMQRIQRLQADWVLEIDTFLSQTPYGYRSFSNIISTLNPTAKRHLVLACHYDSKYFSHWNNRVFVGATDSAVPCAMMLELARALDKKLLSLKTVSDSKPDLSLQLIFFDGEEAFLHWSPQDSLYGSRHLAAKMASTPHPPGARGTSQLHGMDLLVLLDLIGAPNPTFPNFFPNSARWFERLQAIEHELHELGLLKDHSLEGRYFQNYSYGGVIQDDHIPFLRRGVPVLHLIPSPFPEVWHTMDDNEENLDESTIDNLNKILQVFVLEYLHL
With `Cc1cncn1CCCNC(=S)Nc1ccc2cnccc2c1`, the IC50 result was “Active”.

For the compound `Cc1cncn1CCCNC(=S)Nc1cccc2cccnc12`, the IC50 entry was “Active”.

On to `Cc1cncn1CCCNC(=S)Nc1cccnc1`, for which the IC50 result is “Active”.

With `Cc1cncn1CCCNC(=S)Nc1cnc2ccccc2c1`, the IC50 result is “Active”.

Consider `Cc1cncn1CCCNC(=S)Nc1cccc2c1OCCO2`, for which the IC50 entry is given as “Not Active”.

Consider `Cc1cncn1CCCNC(=S)Nc1ccc2cc[nH]c2c1`, for which the IC50 entry was “Active”.

Consider `Cc1cncn1CCCNC(=S)Nc1ccc2c(c1)CCC2`, for which the IC50 entry is listed as “Active”.
